According to ChEMBL document CHEMBL4706768, “Discovery of Potent, Selective Triazolothiadiazole-Containing c-Met Inhibitors” (ACS Med Chem Lett, 2021):

Experiments:
[1] = target: T1, Hepatocyte growth factor receptor (Homo sapiens, UniProt P08581); test: Inhibition of c-Met (unknown origin) using poly Glu-Tyr as substrate preincubated for 10 mins followed by ATP addition by phosphoenolpyruvate/pyruvate kinase/lactate dehydrogenase coupled radiometric assay
[2] = target: T1, Hepatocyte growth factor receptor; test: Inhibition of c-MET in human SNU-5 cells measured after 6 hrs by steady-glo luciferase reporter gene assay; type: cell-based
[3] = target: Vascular endothelial growth factor receptor 2 (Homo sapiens, UniProt P35968); test: Inhibition of KDR (unknown origin)
[4] = Inhibition of PI3K (unknown origin); set-up: species or system Homo sapiens
[5] = target: Tyrosine-protein kinase ABL1 (Homo sapiens) (UniProt P00519); test: Inhibition of recombinant N-terminal His6-tagged human ABL (27 to end residues) expressed in baculovirus infected Sf21 insect cells at 2 uM using Abltide as substrate relative to control
[6] = target: ALK tyrosine kinase receptor (Homo sapiens) (UniProt Q9UM73); test: Inhibition of recombinant N-terminal His6-tagged human ALK (1058 to end residues) expressed in baculovirus infected Sf21 insect cells at 2 uM using IGF-1Rtide as substrate relative to control
[7] = target: Mitogen-activated protein kinase kinase kinase 5 (Homo sapiens) (UniProt Q99683); test: Inhibition of recombinant N-terminal GST-tagged/C-terminal His6-tagged human ASK1 (649 to 946 residues) expressed in Escherichia coli at 2 uM using MBP as substrate relative to control
[8] = target: Tyrosine-protein kinase receptor UFO (Homo sapiens) (UniProt P30530); test: Inhibition of recombinant N-terminal His6-tagged human AXL (473 to end residues) expressed in Sf21 insect cells at 2 uM using Axl-tide as substrate relative to control
[9] = target: Tyrosine-protein kinase BTK (Homo sapiens) (UniProt Q06187); test: Inhibition of recombinant N-terminal His6-tagged human full-length BTK expressed in Sf21 insect cells at 2 uM using Src peptide as substrate relative to control
Homo sapiens = organism: Homo sapiens; test: Inhibition of CK1 (unknown origin) at 2 uM relative to control
[10] = target: Calcium/calmodulin-dependent protein kinase type II subunit beta (Homo sapiens) (UniProt Q13554); test: Inhibition of recombinant human N-terminal His6-tagged CAMK2beta (1 to 315 residues) expressed in baculovirus infected Sf21 insect cells at 2 uM using ZIPtide as substrate relative to control
[11] = target: Epidermal growth factor receptor (Homo sapiens) (UniProt P00533); test: Inhibition of recombinant human N-terminal GST-tagged EGFR (696 to end residues) expressed in baculovirus infected Sf21 insect cells at 2 uM using angiotensin II peptide as substrate relative to control
[12] = target: Mitogen-activated protein kinase; ERK1/ERK2 (Homo sapiens) (UniProt P27361+P28482); test: Inhibition of recombinant human full-length N-terminal GST-tagged MAPK1/ERK1 ([…]) expressed in Escherichia coli at 2 uM using MBP as substrate relative to control
[13] = target: Ephrin type-B receptor 4 (Homo sapiens) (UniProt P54760); test: Inhibition of recombinant human N-terminal GST-tagged EphB4 (561 to end residues) expressed in baculovirus infected Sf21 insect cells at 2 uM using poly (Glu,Tyr) (4:1) as substrate relative to control
Sequence of Ephrin type-B receptor 4 (Homo sapiens) (P54760 whole entry): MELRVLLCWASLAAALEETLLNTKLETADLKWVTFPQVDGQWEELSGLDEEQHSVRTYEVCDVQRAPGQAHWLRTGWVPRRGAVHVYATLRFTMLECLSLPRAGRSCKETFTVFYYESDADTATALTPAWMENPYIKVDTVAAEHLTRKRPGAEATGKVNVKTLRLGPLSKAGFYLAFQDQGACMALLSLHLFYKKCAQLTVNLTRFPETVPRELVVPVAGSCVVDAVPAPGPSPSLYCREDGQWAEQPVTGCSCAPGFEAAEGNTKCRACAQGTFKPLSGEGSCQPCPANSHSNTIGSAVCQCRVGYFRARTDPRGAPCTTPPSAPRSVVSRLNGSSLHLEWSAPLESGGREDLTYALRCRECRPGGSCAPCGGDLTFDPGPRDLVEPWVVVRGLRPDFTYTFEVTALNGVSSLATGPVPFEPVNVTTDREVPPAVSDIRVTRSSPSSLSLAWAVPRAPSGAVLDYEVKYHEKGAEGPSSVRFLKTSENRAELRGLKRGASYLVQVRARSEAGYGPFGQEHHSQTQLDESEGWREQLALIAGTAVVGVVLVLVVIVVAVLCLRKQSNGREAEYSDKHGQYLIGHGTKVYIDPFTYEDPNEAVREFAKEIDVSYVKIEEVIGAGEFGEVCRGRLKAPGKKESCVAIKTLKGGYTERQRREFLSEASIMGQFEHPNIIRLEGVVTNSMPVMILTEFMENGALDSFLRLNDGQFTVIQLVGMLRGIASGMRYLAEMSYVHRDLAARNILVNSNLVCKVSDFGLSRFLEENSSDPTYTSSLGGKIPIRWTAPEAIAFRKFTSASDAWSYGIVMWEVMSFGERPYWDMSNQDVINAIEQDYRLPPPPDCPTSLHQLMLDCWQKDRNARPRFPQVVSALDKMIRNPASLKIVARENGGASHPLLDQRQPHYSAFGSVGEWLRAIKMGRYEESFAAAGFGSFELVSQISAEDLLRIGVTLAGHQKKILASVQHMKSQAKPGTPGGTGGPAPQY

[14] = target: Tyrosine-protein kinase Fes/Fps (Homo sapiens) (UniProt P07332); test: Inhibition of recombinant human N-terminal His6-tagged FES (561 to end residues) expressed in baculovirus infected Sf21 insect cells at 2 uM using poly (Glu,Tyr) (4:1) as substrate relative to control
[15] = target: Tyrosine-protein kinase Lck (Homo sapiens) (UniProt P06239); test: Inhibition of recombinant human full-length N-terminal His6-tagged LCK expressed in baculovirus infected Sf21 insect cells at 2 uM relative to control
Sequence of Tyrosine-protein kinase Lck (Homo sapiens) (P06239 2-509 limits assumed): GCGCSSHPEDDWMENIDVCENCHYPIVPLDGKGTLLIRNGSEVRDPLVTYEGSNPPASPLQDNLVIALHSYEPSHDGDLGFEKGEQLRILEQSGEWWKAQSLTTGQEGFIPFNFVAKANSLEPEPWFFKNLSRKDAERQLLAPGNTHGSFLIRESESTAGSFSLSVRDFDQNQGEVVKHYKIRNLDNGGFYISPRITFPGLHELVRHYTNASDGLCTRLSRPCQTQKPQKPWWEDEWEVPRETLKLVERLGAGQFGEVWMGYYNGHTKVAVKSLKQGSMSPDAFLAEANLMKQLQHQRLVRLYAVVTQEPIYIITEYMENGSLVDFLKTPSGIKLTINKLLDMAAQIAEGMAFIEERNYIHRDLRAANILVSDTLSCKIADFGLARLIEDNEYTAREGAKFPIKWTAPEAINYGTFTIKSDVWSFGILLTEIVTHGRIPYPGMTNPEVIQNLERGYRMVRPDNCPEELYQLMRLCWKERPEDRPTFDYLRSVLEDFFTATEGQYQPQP

[16] = target: Tyrosine-protein kinase Lyn (Homo sapiens) (UniProt P07948); test: Inhibition of recombinant human N-terminal His6-tagged full-length LYN expressed in Sf21 insect cells at 2 uM using Poly (Glu4-Tyr) (4:1) as substrate relative to control
[17] = target: Dual specificity mitogen-activated protein kinase kinase 1 (Homo sapiens) (UniProt Q02750); test: Inhibition of recombinant human N-terminal GST-tagged/C-terminal His6-tagged full-length MEK1 expressed in Escherichia coli at 2 uM using MBP as substrate relative to control
[18] = target: Serine/threonine-protein kinase Nek2 (Homo sapiens) (UniProt P51955); test: Inhibition of recombinant human N-terminal His6-tagged NEK2 expressed in baculovirus infected Sf21 insect cells at 2 uM using MBP as substrate relative to control
[19] = target: Mitogen-activated protein kinase 11 (Homo sapiens) (UniProt Q15759); test: Inhibition of recombinant human N-terminal GST-tagged full-length p38beta2 expressed in Escherichia coli at 2 uM using MBP as substrate relative to control
[20] = target: Protein kinase C beta type (Homo sapiens) (UniProt P05771); test: Inhibition of recombinant human N-terminal His6-tagged PKCbeta2 (2 to end residues) expressed in Sf21 insect cells at 2 uM using Histone H1 as substrate relative to control
[21] = target: Protein kinase C theta type (Homo sapiens) (UniProt Q04759); test: Inhibition of recombinant human full-length C-terminal His6-tagged PKCtheta expressed in Sf21 insect cells at 2 uM using Histone H1 as substrate relative to control
[22] = target: Serine/threonine-protein kinase N2 (Homo sapiens) (UniProt Q16513); test: Inhibition of PRK2 (unknown origin) at 2 uM relative to control
Sequence of Serine/threonine-protein kinase N2 (Homo sapiens) (Q16513 whole entry, looked up, the tested form may be a part): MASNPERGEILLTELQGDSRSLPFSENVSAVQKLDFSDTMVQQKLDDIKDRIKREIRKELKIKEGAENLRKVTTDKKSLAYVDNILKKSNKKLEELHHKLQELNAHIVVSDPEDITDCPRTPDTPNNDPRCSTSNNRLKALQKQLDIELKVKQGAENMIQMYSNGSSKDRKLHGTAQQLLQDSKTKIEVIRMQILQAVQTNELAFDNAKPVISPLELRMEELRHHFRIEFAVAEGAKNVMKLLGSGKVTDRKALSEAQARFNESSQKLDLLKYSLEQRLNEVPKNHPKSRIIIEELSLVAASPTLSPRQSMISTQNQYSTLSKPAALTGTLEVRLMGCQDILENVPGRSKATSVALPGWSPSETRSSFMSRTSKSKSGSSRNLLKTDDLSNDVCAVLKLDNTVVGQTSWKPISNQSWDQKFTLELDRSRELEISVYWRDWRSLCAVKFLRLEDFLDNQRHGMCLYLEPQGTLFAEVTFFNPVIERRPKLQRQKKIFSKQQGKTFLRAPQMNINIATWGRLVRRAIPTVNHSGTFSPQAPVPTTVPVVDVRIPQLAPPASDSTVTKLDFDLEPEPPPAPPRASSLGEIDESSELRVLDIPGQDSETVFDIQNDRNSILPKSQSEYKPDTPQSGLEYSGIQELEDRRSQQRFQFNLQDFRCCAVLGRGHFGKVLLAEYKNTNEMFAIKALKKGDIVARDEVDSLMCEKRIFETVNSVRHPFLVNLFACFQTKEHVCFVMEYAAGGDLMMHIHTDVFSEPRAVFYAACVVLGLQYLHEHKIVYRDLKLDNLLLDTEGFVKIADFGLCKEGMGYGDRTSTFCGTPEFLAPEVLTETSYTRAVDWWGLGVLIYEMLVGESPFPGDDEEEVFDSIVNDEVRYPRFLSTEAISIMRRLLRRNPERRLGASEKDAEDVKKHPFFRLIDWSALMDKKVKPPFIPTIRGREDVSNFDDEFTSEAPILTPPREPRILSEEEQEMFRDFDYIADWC

[23] = system: RAF proto-oncogene serine/threonine-protein kinase (Homo sapiens), P04049 [Y340D,Y341D]; test: Inhibition of recombinant human N-terminal GST-tagged c-RAF Y340D/Y341D mutant (306 to 648 residues) expressed in Sf9 insect cells at 2 uM using MEK1(K97R) as substrate relative to control
[24] = target: Proto-oncogene tyrosine-protein kinase receptor Ret (Homo sapiens) (UniProt P07949); test: Inhibition of recombinant human N-terminal GST-tagged RET (658 to end residues) expressed in baculovirus infected Sf21 insect cells at 2 uM using IFG1Rtide as substrate relative to control
Sequence of Proto-oncogene tyrosine-protein kinase receptor Ret (Homo sapiens) (P07949 whole entry, the tested form may be a part): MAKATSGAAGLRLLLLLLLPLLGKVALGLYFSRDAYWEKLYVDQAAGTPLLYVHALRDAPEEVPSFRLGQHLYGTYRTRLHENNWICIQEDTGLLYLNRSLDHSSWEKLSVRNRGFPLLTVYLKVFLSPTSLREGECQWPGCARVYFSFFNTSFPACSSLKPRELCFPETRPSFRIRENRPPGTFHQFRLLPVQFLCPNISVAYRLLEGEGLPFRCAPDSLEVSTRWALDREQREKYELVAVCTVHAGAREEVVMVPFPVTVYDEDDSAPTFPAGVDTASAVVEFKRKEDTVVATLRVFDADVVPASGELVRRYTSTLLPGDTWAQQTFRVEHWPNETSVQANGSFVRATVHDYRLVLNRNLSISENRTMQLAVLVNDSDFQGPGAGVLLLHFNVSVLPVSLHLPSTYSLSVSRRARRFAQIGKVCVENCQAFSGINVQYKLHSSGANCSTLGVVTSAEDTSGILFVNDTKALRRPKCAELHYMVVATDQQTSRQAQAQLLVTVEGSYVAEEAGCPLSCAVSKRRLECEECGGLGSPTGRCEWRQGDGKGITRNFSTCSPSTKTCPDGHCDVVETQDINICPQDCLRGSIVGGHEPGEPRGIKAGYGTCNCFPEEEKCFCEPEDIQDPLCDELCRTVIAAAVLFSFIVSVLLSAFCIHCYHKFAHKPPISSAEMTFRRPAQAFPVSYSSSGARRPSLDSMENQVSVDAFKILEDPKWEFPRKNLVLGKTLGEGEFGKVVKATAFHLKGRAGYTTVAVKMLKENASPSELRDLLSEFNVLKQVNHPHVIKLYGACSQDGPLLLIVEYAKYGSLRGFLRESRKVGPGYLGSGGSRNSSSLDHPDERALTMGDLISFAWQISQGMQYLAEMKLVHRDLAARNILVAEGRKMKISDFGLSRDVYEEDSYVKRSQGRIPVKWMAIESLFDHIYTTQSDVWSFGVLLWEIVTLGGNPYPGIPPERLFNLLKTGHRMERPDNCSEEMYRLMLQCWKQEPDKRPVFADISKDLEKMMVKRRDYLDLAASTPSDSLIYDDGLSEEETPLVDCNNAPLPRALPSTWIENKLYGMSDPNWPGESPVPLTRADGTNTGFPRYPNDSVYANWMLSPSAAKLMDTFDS

[25] = target: Receptor-interacting serine/threonine-protein kinase 2 (Homo sapiens) (UniProt O43353); test: Inhibition of recombinant human N-terminal His6-tagged RIPK2 (1 to 299 residues) expressed in baculovirus infected Sf21 insect cells at 2 uM using MBP as substrate relative to control
[26] = target: Serine/threonine-protein kinase Sgk1 (Homo sapiens) (UniProt O00141); test: Inhibition of SGK (unknown origin) at 2 uM relative to control
[27] = target: Tyrosine-protein kinase ZAP-70 (Homo sapiens) (UniProt P43403); test: Inhibition of recombinant human full-length C-terminal His6-tagged ZAP70 expressed in Sf21 insect cells at 2 uM using poly (Glu4-Tyr) (4:1) as substrate relative to control

T1 sequence (P08581 whole entry): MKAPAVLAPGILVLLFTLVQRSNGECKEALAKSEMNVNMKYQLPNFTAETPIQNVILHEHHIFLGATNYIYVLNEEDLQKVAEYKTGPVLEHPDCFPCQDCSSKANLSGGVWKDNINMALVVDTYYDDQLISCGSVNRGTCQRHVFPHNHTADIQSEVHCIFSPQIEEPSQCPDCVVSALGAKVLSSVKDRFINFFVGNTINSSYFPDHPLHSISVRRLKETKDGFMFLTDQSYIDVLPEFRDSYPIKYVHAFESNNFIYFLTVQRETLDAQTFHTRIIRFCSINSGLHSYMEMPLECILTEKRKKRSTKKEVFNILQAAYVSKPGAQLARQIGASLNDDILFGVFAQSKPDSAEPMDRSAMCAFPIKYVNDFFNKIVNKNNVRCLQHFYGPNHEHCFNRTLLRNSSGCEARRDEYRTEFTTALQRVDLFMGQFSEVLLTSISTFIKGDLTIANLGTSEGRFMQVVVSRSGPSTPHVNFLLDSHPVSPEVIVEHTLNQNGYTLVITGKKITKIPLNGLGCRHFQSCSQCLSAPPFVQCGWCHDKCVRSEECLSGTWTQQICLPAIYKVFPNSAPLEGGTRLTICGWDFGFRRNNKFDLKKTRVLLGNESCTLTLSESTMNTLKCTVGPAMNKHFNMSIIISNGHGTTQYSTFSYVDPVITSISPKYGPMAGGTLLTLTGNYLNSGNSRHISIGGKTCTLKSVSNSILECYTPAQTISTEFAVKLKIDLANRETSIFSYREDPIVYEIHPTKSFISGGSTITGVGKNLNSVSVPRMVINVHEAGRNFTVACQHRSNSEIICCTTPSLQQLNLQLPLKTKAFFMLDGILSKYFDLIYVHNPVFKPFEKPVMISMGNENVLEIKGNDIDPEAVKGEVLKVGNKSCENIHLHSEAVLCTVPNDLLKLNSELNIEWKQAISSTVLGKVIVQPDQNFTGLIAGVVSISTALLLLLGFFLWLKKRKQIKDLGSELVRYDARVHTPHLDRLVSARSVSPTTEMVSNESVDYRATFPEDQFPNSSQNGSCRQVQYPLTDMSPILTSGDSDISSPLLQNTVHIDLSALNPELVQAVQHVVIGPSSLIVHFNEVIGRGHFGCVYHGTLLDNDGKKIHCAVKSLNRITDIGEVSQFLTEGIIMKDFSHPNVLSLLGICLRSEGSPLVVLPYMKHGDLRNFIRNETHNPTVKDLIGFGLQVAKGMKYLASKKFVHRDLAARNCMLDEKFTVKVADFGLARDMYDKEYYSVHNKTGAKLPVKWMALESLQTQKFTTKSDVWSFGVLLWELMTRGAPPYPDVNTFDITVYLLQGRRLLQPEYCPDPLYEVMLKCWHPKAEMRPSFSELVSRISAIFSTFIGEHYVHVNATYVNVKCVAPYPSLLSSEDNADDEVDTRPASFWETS

C[C@@H](c1ccc2ncccc2c1)c1nnc2sc(-c3cnn(C)c3)nn12
> 4000 nM: Ki [3] | Ki [4]
< 50%: inhibition [5] | inhibition [6] | inhibition [7] | inhibition [8] | inhibition [9] | inhibition (Homo sapiens) | inhibition [10] | inhibition [11] | inhibition [12] | inhibition [13] | inhibition [14] | inhibition [15] | inhibition [16] | inhibition [17] | inhibition [18] | inhibition [19] | inhibition [20] | inhibition [21] | inhibition [22] | inhibition [23] | inhibition [24] | inhibition [25] | inhibition [26] | inhibition [27]
20 nM: Ki [1] | IC50 [2]
